Paper PMC9100072, “Modulation of the MOP Receptor (μ Opioid Receptor) by Imidazo[1,2-a]imidazole-5,6-Diones: In Search of the Elucidation of the Mechanism of Action” (Molecules, 2022)
Values joined by “and” are separate entries in the source; they are usually repeats but may differ in a detail not shown here. Identical values can stand only once. Like-named read-outs stand apart in the source and are kept apart here.

What was measured:
[1] = biological target: T1, human μ-opioid receptor (Homo sapiens, UniProt P35372); assay: biochemical; assay type: binding; conditions: for binding to the μ-opioid receptor: tested concentrations 10^−5–10^−10 M
T1 construct: purchased Perkin Elmer ES-542-M400UA; host or cells: CHO-K1 cells, stably transfected (membranes)
Experimental: The reaction was terminated by rapid filtration through GF/B filter mate presoaked with 0.5% polyethyleneimine for 30 min. […] Data were fitted to a one-site curve-fitting equation with Prism 6 (GraphPad Software), and Ki values were estimated from the Cheng–Prusoff equation.

[2] = biological target: T2, human μ-opioid (OP3) receptor (Homo sapiens, UniProt P35372); assay: cell-based; assay type: cell-based; design: Emax: dose or concentration left out as unconfirmed
[3] = biological target: T2, human μ-opioid (OP3) receptor; assay: cell-based; conditions: for Emax at 0.03 µM / Emax: U2OS; for Emax at 0.03 µM: read-out: Emax% (EC87: 30 nM) Antagonist Mode
[4] = CHO-K1; read-out: Emax% Agonist Mode
[5] = CHO-K1; read-out: Emax% Antagonist Mode
[6] = read-out: Emax% (EC20: 1 nM) Antagonist Mode
[7] = CHO-K1, read-out: Emax% Antagonist Mode

T2 sequence (P35372 whole entry): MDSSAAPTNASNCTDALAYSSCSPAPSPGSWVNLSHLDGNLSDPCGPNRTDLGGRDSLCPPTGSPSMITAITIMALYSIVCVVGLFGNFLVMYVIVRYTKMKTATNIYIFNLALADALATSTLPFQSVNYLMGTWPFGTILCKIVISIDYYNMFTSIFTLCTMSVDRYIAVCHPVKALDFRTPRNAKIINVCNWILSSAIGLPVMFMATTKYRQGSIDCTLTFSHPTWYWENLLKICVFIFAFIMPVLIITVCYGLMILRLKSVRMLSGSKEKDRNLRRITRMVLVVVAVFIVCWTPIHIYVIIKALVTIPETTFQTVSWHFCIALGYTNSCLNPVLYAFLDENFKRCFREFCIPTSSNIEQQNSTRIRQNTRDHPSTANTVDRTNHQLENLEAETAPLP
T1 sequence (P35372 whole entry): as above

For `O=C1N=C2N(CCN2c2ccccc2)C1=O` [1a], which “binding to the μ-opioid receptor” value [1] is on record?
The value was “No binding”.

What about the Emax [2, 4] of the same compound?
The Emax was 15%.

What about the Emax [2, 5] of the same compound?
Its Emax is 6%.

What about the Emax at 0.0046 µM [2, 5] of the same compound?
Its Emax at 0.0046 µM is 4%.

And the Emax at 0.03 µM [2, 5]?
Its Emax at 0.03 µM is 9%.

And the Emax at 0.03 µM [3]?
Its Emax at 0.03 µM is 22%.

And the Emax [3, 6]?
Its Emax is 92%.

And the Emax ([3]; read-out: Emax% Agonist Mode)?
The Emax was 8%.

What does the source list for `Cc1cccc(N2CCN3C(=O)C(=O)N=C32)c1` [1b]?
binding to the μ-opioid receptor [1]: No binding; Emax% Antagonist Mode [2]: 5%; Emax [2, 4]: 13%; Emax [2, 5]: 10%; Emax at 0.0046 µM [2, 5]: 6%; Emax at 0.03 µM [3]: 12%; Emax [3, 6]: 94%; Emax ([3]; read-out: Emax% Agonist Mode): 13%; melting point: 220 to 223 °C

With `Cc1ccc(N2CCN3C(=O)C(=O)N=C32)cc1` [1c, 1-(4-methylphenyl)-2,3-dihydro-1H-imidazo[1,2-a]imidazole-5,6-dione] as the compound, how does the “binding to the μ-opioid receptor” value [1] read?
Its value is “No binding”.

What about the Emax [2, 4] of the same compound?
Its Emax is 13%.

What about the Emax [2, 5] of the same compound?
Its Emax is 35%.

And the Emax at 0.0046 µM [2, 5]?
Its Emax at 0.0046 µM is 4%.

And the “pharmacological classification in words” value ([2]; from cAMP functional data (with binding data for the modulator conclusion))?
The value was “weak antagonist properties”.

And the “pharmacological classification in words” value ([2]; from cAMP functional data (with binding data for the modulator conclusion); listed as 1-(4-methylphenyl)-2,3-dihydro-1H-imidazo[1,2-a]imidazole-5,6-dione)?
The value was “negative allosteric modulator”.

What about the Kb ([2]; pKb Range Antagonist Mode) of the same compound?
The Kb was 0.661 nM.

What about the Kb ([2]; read-out: pKb Range Antagonist Mode (converted)) of the same compound?
Its Kb is 8.91 nM.

What about the Emax at 0.03 µM [3] of the same compound?
The Emax at 0.03 µM was 12%.

What about the Emax [3, 6] of the same compound?
Its Emax is 97%.

What about the Emax ([3]; read-out: Emax% Agonist Mode) of the same compound?
Its Emax is 15%.

And the melting point?
Its melting point is 236 to 238 °C.

Which “binding to the μ-opioid receptor” value [1] does the source give for `O=C1N=C2N(CCN2c2cccc(Cl)c2)C1=O` [1d] here?
Its value is “No binding”.

And the Emax [2, 4]?
The Emax was 13%.

What about the Emax [2, 5] of the same compound?
Its Emax is 22%.

And the Emax at 0.0046 µM [2, 5]?
Its Emax at 0.0046 µM is 4%.

And the Emax at 0.03 µM [2, 5]?
The Emax at 0.03 µM was 5%.

And the Emax at 0.03 µM [3]?
Its Emax at 0.03 µM is 9%.

What about the Emax [3, 6] of the same compound?
The Emax was 92%.

What about the Emax ([3]; read-out: Emax% Agonist Mode) of the same compound?
The Emax was 15%.

What about the melting point of the same compound?
The melting point was 279 to 280 °C.

What does the source list for `O=C1N=C2N(CCN2c2ccc(Cl)cc2)C1=O` [1e]?
binding to the μ-opioid receptor [1]: No binding; Emax% Antagonist Mode [2]: 3%; Emax [2, 4]: 13%; Emax [2, 5]: 8%; Emax at 0.0046 µM [2, 5]: 12%; Emax at 0.03 µM [2, 5]: 5%; Emax at 0.03 µM [3]: 19%; Emax [3, 6]: 89%; Emax ([3]; read-out: Emax% Agonist Mode): 14%

For `C[C@@H](O)[C@H](NC(=O)[C@H]1NC(=O)[C@H]([C@@H](C)O)NC(=O)[C@H](CCCNC(=N)N)NC(=O)[C@@H](Cc2c[nH]c3ccccc23)NC(=O)[C@H](Cc2ccc(O)cc2)NC(=O)[C@@H](NC(=O)[C@H](N)Cc2ccccc2)CSSC1(C)C)C(N)=O` [CTAP, {d-Phe}-Cys-Tyr-{d-Trp}-Arg-Thr-{Pen}-Thr-NH2 (disulfide bridge: Cys2-Pen7), reference compound], which Ki [1] is on record?
Its Ki is 4.9 nM.

And the Emax ([2]; CHO-K1, read-out: Emax% Agonist Mode)?
The Emax was 12%.

What about the Emax [2, 7] of the same compound?
Its Emax is 100%.

What about the Emax at 0.0046 µM [2, 7] of the same compound?
Its Emax at 0.0046 µM is 100%.

What about the Emax at 0.03 µM [2, 7] of the same compound?
The Emax at 0.03 µM was 116%.

What does the source list for `C[C@@H](NC(=O)[C@@H](N)Cc1ccc(O)cc1)C(=O)NCC(=O)N(C)[C@@H](Cc1ccccc1)C(=O)NCCO` [DAMGO, (2S)-2-[[2-[[(2R)-2-[[(2S)-2-Amino-3-(4-hydroxyphenyl)propanoyl]-amino]-propanoyl]amino]acetyl]-methylamino]-N-(2-hydroxyethyl)-3-phenylpropanamide, reference compound]?
EC20 of DAMGO [2]: 1 nM; EC80 of DAMGO [2]: 18 nM; EC87 of DAMGO [2]: 30 nM; Emax% Antagonist Mode [2]: 2%; Emax [2, 7]: 0%; Emax at 0.0046 µM [2, 7]: 0%

Which results are given for `COC(=O)/C=C/C(=O)N[C@@H]1CC[C@@]2(O)[C@H]3Cc4ccc(O)c5c4[C@@]2(CCN3CC2CC2)[C@H]1O5` [ß-FUNALTREXAMINE, beta-funaltrexamine, reference compound]?
pKi Range [1]: 9.13 (9.10–9.15); Emax% Agonist Mode [2]: 17%; Emax% Antagonist Mode [2]: 66% and 40% and 46% and 42%; Emax% (EC20: 1 nM) Antagonist Mode [3]: 122%; Emax% (EC87: 30 nM) Antagonist Mode [3]: 127%; Emax% Agonist Mode ([3]; β-arrestin recruitment, fraction of effect of DAMGO): 10%
